Test results published in patent US12227509B2, “Dihydropyrazolopyrazinone derivative having MGAT2 inhibitory activity” (Shionogi & Co., Ltd., priority 2019, dated 2025).
Values after ≈ are worked out from the molar mass of the structure shown.

How the values were obtained:
[1] = Solubility test (1% DMSO addition, pH 6.8 artificial intestinal juice); assay type: physicochemical; details: kinetic from dmso stock, 16 hours at 25° C.
CYP1A2 = CYP1A2 (Homo sapiens (Human), UniProt P05177); test: CYP inhibition test, CYP1A2; assay type: in vitro ADME; details: pooled human liver microsomes; 7-ethoxyresorufin O-deethylation; given as 'five kinds'
CYP1A2, sequence (P05177 whole entry): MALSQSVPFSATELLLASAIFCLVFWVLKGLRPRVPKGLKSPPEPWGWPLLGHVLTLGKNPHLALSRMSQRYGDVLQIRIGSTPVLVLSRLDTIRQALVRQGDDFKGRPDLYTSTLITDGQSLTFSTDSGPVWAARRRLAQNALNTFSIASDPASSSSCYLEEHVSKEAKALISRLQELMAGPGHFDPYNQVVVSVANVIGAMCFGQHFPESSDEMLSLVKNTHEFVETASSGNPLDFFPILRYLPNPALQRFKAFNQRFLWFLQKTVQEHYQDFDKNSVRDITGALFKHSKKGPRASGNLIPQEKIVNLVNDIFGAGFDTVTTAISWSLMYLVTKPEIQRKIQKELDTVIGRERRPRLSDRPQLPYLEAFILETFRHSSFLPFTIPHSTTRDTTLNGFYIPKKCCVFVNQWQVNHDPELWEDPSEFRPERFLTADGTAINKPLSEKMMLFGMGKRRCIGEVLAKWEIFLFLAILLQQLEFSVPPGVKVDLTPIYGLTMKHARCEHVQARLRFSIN
From the text: (§1) Using commercially available pooled human hepatic microsome, and employing, as markers, 7-ethoxyresorufin O-deethylation (CYP1A2), tolbutamide methyl-hydroxylation (CYP2C9), mephenytoin 4'-hydroxylation (CYP2C19), dextromethorphan 0-demethylation (CYP2D6), and terfenadine hydroxylation (CYP3A4) as typical substrate metabolism reactions of human main five CYP enzyme forms (CYP1A2, 2C9, 2C19, 2D6, 3A4), an inhibitory degree of each metabolite production amount by the compound of the present invention was assessed. The reaction conditions are as follows: substrate, 0.5 μmol/L ethoxyresorufin (CYP1A2), 100 μmol/L tolbutamide (CYP2C9), 50 μmol/L S-mephenitoin (CYP2C19), 5 μmol/L dextromethorphan (CYP2D6), 1 μmol/L terfenedine (CYP3A4); reaction time, 15 minutes; reaction temperature, 37° C.; enzyme, pooled human liver microsomes 0.2 mg protein/mL; concentrations of the compound of the present invention, 1, 5, 10, 20 μmol/L (four points). As a reaction solution, each five kinds of substrates, human liver microsomes, or compound of the present invention in 50 mmol/L Hepes buffer were added to a 96-well plate at the composition as described above, and NADPH, as a cofactor was added to initiate metabolism reactions. After the incubation at 37° C. for 15 minutes, a methanol/acetonitrile=1/[…]) solution was added to stop the reaction. After the centrifugation at 3000 rpm for 15 minutes, resorufin (CYP1A2 metabolite) in the supernatant was quantified by a fluorescent multilabel counter or LC/MS/MS, and tolbutamide hydroxide (CYP2C9 metabolite), mephenytoin 4' hydroxide (CYP2C19 metabolite), dextrorphan (CYP2D6 metabolite), and terfenadine alcohol (CYP3A4 metabolite) were quantified by LC/MS/MS. Addition of only DMSO being a solvent dissolving a drug to a reaction system was adopted as a control (100%). Remaining activity (%) was calculated. IC50 was calculated by reverse presumption by a logistic model using the concentration and an inhibition rate.

CYP2C19 = CYP2C19 (Homo sapiens (Human), UniProt P33261); test: CYP inhibition test, CYP2C19; assay type: in vitro ADME; details: pooled human liver microsomes; mephenytoin 4′-hydroxylation; given as 'five kinds'
CYP2C19, sequence (P33261 whole entry): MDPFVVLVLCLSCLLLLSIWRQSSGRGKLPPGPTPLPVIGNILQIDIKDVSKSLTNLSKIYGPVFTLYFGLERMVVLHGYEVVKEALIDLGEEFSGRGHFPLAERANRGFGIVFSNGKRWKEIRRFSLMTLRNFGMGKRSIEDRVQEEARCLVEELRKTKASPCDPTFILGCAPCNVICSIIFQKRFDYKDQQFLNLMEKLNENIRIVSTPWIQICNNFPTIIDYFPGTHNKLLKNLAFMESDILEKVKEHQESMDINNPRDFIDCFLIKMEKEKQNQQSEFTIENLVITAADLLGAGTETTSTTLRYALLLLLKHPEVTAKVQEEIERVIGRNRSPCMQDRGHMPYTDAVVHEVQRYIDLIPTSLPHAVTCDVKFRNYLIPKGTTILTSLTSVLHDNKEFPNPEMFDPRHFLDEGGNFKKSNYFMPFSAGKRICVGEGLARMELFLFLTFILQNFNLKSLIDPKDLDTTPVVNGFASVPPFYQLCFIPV
From the text: as §1

CYP3A4 = CYP3A4 (Homo sapiens (Human), UniProt P08684); test: CYP inhibition test, CYP3A4; assay type: in vitro ADME; details: pooled human liver microsomes; terfenadine hydroxylation; given as 'five kinds'
CYP3A4, sequence (P08684 whole entry): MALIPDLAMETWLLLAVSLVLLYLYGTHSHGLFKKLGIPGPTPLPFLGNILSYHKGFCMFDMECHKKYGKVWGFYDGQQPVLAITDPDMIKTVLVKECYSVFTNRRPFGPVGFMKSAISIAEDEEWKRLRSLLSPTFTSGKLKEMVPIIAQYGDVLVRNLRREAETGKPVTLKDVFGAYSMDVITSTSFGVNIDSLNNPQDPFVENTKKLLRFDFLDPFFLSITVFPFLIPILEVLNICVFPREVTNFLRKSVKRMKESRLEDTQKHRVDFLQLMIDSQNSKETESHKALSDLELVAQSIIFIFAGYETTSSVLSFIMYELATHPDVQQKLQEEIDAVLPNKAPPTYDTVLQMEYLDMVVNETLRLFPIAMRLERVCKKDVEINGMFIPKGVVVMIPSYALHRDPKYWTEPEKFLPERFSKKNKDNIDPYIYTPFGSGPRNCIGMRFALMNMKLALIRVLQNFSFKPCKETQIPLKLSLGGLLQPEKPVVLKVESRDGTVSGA
From the text: as §1

[2] = BA test (oral absorption); assay type: in vivo; details: plasma; mice or SD rats; from AUCs of oral and intravenous administration
Procedure: Materials and methods for experiments to evaluate oral absorption
(1) Animals: the mice or SD rats were used.
(2) Breeding conditions: the mice or SD rats were allowed to freely take solid food and sterilized tap water.
(3) Setting of dosage and grouping: Oral administration and intravenous administration were performed with a predetermined dosage. Grouping was set as below. (dosage changed per compound)
Oral administration: 1 to 30 mg/kg (n=2 to 3)
Intravenous administration: 0.5 to 10 mg/kg (n=2 to 3)
(4) Preparation of administration solution: Oral administration was performed in the form of a suspension or a solution. Intravenous administration was performed after solubilization.
(5) Routes of administration: Oral administration was performed mandatory into the stomach by oral sonde. Intravenous administration was performed from caudal vein or femoral vein by syringes with needle.
(6) Evaluation items: blood was collected over time, and the plasma concentration of the compound of the present invention was measured by LC/MS/MS.
(7) Statistical analysis: regarding the transition of the plasma concentration of the compound of the present invention, the area under the plasma concentration-time curve (AUC) was calculated by non-linear least squares program WinNonlin (registered trademark), and the bioavailability (BA) of the compound of the present invention was calculated from the AUCs of the oral administration group and intravenous administration group.

CYP2C9 = CYP2C9 (Homo sapiens (Human), UniProt P11712); test: CYP inhibition test, CYP2C9; assay type: in vitro ADME; details: pooled human liver microsomes; tolbutamide methyl-hydroxylation; given as 'five kinds'
CYP2C9, sequence (P11712 whole entry): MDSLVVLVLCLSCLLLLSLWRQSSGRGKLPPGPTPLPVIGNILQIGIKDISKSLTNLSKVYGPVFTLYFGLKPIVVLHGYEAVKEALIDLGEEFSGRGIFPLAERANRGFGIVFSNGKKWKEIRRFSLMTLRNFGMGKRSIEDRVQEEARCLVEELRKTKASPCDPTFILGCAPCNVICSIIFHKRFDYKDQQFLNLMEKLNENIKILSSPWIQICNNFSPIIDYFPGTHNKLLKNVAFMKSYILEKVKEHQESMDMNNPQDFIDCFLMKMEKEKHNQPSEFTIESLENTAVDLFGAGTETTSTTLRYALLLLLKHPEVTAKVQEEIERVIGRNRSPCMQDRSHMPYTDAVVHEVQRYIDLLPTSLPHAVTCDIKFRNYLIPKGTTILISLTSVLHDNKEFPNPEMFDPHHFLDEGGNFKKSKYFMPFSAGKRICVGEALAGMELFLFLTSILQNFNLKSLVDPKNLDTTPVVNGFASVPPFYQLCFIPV
From the text: as §1

Row | Compound | solubility at 16 h [1] | IC50 (CYP1A2) | IC50 (CYP2C19) | IC50 (CYP3A4) | bioavailability [2] | IC50 (CYP2C9)
1 | Cc1ccc(-c2nn3c(c2NC(=O)CS(C)(=O)=O)C(=O)N[C@@]2(CCc4cc(OCC(F)(F)F)ccc42)C3)nc1 [Compound I-6] | > 50 µM | > 20 µM | > 20 µM | > 20 µM | 55.1% | > 20 µM
2 | N#Cc1ccc(-c2nn3c(c2NC(=O)CC(F)(F)F)C(=O)N[C@@]2(CCc4cc(OCC(F)(F)F)ccc42)C3)nc1 [Compound I-14] | 41.8 µM (≈ 23.6 µg/mL) | > 20 µM | > 20 µM | > 20 µM | – | > 20 µM
3 | Cc1ccc(-c2nn3c(c2NC(=O)CS(C)(=O)=O)C(=O)N[C@@]2(CCc4cc(OCC(F)(F)F)ccc42)C3)cc1 [Compound I-20] | – | > 20 µM | > 20 µM | > 20 µM | 63.4% | > 20 µM

Second part, the compound after the results:

Row | solubility at 16 h [1] | IC50 (CYP1A2) | IC50 (CYP2C19) | IC50 (CYP3A4) | bioavailability [2] | IC50 (CYP2C9) | Compound
4 | > 50 µM | > 20 µM | > 20 µM | > 20 µM | 53.1% | > 20 µM | CS(=O)(=O)CC(=O)Nc1c(CCC2CC2)nn2c1C(=O)N[C@@]1(CCc3cc(OCC(F)(F)F)ccc31)C2 [Compound I-46]
5 | > 50 µM | > 20 µM | > 20 µM | > 20 µM | 88.2% | > 20 µM | CS(=O)(=O)CC(=O)Nc1c(CCC(F)(F)F)nn2c1C(=O)N[C@@]1(CCc3cc(OCC(F)(F)F)ccc31)C2 [Compound I-58]
